Results reported in publication PMC12631437, “Evaluation of the Activity of 4‑Quinolones against Multi-Life Stages of Plasmodium spp” (ACS Omega, 2025).
Where “and” joins values, the source holds several entries; their conditions need not be identical. Equal values may be shown once. Read-outs that look alike come from different tables or passages of the source.

Assays:
[1] = tested on: Plasmodium falciparum 3D7 sensitive strain; test: SYBR Green growth assay, asexual blood stages, 3D7 sensitive strain; type: cell-based
Procedure: (§1) Parasite strains SB1-A6, 7G8, V1/S, and HB3 were acquired from BEI-MR4, while the ATQ R1 strain, carrying a V259L gene mutation, was generated in-house. […] Parasitemia was monitored using Giemsa-stained blood smears.
(§2) Bioassays were conducted with synchronized ring-stage parasites using sorbitol synchronization. Antimalarial compounds were evaluated in 96-well plates, and parasite growth was assessed using a SYBR Green-based fluorescence assay The assays were conducted when the parasite quantity reached at least 70% of the ring stage. Compounds were initially added at specific concentrations in the first wells, followed by serial dilution (1:2) ranging from 20 μM to 0.009 μM. Subsequently, a solution containing parasites in RPMI medium at a hematocrit of 2% was added to each well, and the parasites were then incubated for 72 h.
(§3) The IC50 values were determined using concentration–response curves generated in GraphPad 8 software. Additionally, the resistance index was calculated by comparing IC50 values obtained for the sensitive 3D7 strain with those of the resistant strains.

P. falciparum HB3 strain = test: SYBR Green growth assay, asexual blood stages, HB3 strain; type: cell-based, Plasmodium falciparum; conditions: for IC50: Plasmodium falciparum
Procedure: as §1, §2, §3

[2] = tested on: P. falciparum V1/S strain; test: microbe, parasite or virus in culture; type: cell-based, Plasmodium falciparum; conditions: for IC50: Plasmodium falciparum
Procedure: Healthy blood samples for parasite culture were obtained from voluntary donors (approved under protocol #28176720.9.0000.0011), processed to remove white blood cells, and stored at 2 °C–8 °C for up to 15 days. Parasite strains SB1-A6, 7G8, V1/S, and HB3 were acquired from BEI-MR4, while the ATQ R1 strain, carrying a V259L gene mutation, was generated in-house. Infected erythrocytes were cultured in RPMI 1640 medium supplemented with Hepes, sodium bicarbonate, glucose, Albumax, and gentamicin, […], and incubated in a 5% CO2, 5% O2, and 90% N2 gas mixture at 37 °C with daily medium changes. Parasitemia was monitored using Giemsa-stained blood smears.
as §2
To assess parasite growth, the culture medium was replaced with a lysis solution (Trisbase: 49.31%, EDTA: 30.00%, Saponin: 0.16%, Triton: 0.02%) containing the fluorescent dye SYBR Green (Sigma). After a 30 min incubation, fluorescence readings were taken to determine the 50% inhibitory concentration (IC50) of parasite growth. The IC50 values were determined using concentration–response curves generated in GraphPad 8 software. Additionally, the resistance index was calculated by comparing IC50 values obtained for the sensitive 3D7 strain with those of the resistant strains.

P. vivax ookinetes = test: Ex vivo P. vivax ookinete formation assay with patient isolates; type: cell-based, Plasmodium vivax; conditions: 24 h
Procedure: Participants were recruited from patients diagnosed with P. vivax malaria via Giemsa-stained blood smears at CEPEM in Porto Velho, Rondônia, Brazil (#28176720.9.0000.0011). Criteria included: P. vivax parasitemia >2000 parasites/μL, age 18–85, no severe malaria, no concomitant diseases, nonpregnant, and consent to study procedures. Approximately 10 mL of venous blood was collected into heparin-coated vials, maintained at 37 °C, and transported to PIVEM for DMFA. Malaria treatment followed Brazilian Ministry of Health guidelines and was unaffected by study participation. […] Erythrocytes were washed with incomplete RPMI-1640 medium by centrifugation at 1500 rpm for 10 min to remove leukocytes. […] The sample was centrifuged once at 450 g for 15 min without a brake. After centrifugation, the pellet remaining at the interface was collected and washed twice at 2000 g for 5 min. […] The parasites were incubated for 24 h at a temperature of 21–24 °C. After this period, the activity of the compounds was determined by microscopy, counting 100 fields to determine the parasitemia per μL in each sample, and counting the mature and immature ookinetes. […] Red blood cells were then washed with incomplete RPMI-1640 medium through centrifugation at 1500 rpm for 10 min to remove leukocytes. […] The sample was centrifuged once at 2000 rpm for 15 min without brake. After centrifugation, the remaining pellet at the interface was collected and washed twice at 2000 rpm for 5 min. […] Parasites were incubated for 24 h at a temperature of 21–24 °C. After this period, compound activity was determined by microscopy counting in 100 fields to determine parasitemia per μL in each sample.

[3] = tested on: P. berghei exflagellation centers; test: Ex vivo exflagellation assay, blood of P. berghei infected mice; type: cell-based, Plasmodium berghei; conditions: 15 min incubation
Procedure: For the ex vivo assays, a female CD1 mouse between 4 and 5 weeks of age (n = 3) was infected with P. berghei. After 4 days, when the presence of parasites (sexual phases) in the blood was observed by Giemsa-stained blood smear microscopy, the total blood from the mouse was collected into a preheated tube at 37 °C containing RPMI medium supplemented with 20% Fetal Bovine Serum (FBS) and 200 units/mL of heparin as an anticoagulant. The tube was maintained at 37 °C and centrifuged at 1500 rpm for 5 min. The supernatant was discarded, and the blood was resuspended in 20 mL of RPMI medium supplemented with 20% FBS.
One milliliter of resuspended blood was added to each well of a 6-well plate containing 5 μM methylene blue (positive control), test compound 1 at 10 μM and 1 μM, and DMSO (negative control). After 15 min, the wells were homogenized, and 10 μL of the content was collected into an Eppendorf tube and incubated at room temperature for another 15 min. The sample was then transferred to a Neubauer chamber, and exflagellation centers were counted using an optical microscope at 40× magnification.

[4] = tested on: Plasmodium over mammalian cells; conditions: specificity for Plasmodium over mammalian cells; previous studies; cited from earlier work
[5] = Plasmodium falciparum, 3D7, 72 h, asexual blood stages, 3D7 sensitive strain, 72 h, read-out: IC50
[6] = asexual blood stages, 3D7 sensitive strain, 72 h, read-out: IC50
[7] = Plasmodium vivax, read-out: P. vivax ookinete formation inhibition (median)

SMILES | IC50 ([1]; Plasmodium falciparum, 3D7, 3D7, strain assigned by order of panels, read-out: IC50 (Figure S1)) | IC50 [1, 5] | IC50 [1, 6] | IC50 (P. falciparum HB3 strain; HB3, strain assigned by order of panels, read-out: IC50 (Figure S1)) | IC50 (P. falciparum HB3 strain; HB3 strain, 72 h, read-out: IC50) | RI (resistance index) (P. falciparum HB3 strain; ratio of IC50 HB3 to 3D7) | IC50 ([2]; 72 h) | IC50 ([2]; read-out: IC50 (Figure S1)) | RI (resistance index) ([2]; ratio of IC50 V1S to 3D7) | inhibition at 0.4 µM (P. vivax ookinetes; Plasmodium vivax, 0.4 μM, read-out: P. vivax ookinete formation inhibition (median)) | inhibition at 2 µM (P. vivax ookinetes; [7]) | inhibition at 10 µM (P. vivax ookinetes; Plasmodium vivax, 10 μM, n = 6 patients, read-out: P. vivax ookinete formation inhibition (median)) | reduction of exflagellation centers (ex vivo) ([3]; 1 μM) | reduction of exflagellation centers (ex vivo) ([3]; 10 μM) | selectivity index (SI) [4] | P. vivax ookinete formation inhibition (median) (P. vivax ookinetes; 0.4 μM)
CCCCCCCCCCCc1cc(=O)c2ccccc2[nH]1 [compound 1, 2-Undecilquinolin-4(1H)-one] | 270 nM | 210 ± 40 nM | 200 ± 100 nM | 260 nM | 430 ± 50 nM | 2.1 | 800 ± 100 nM | 700 nM | 4.0 | 70% | 84% | 97% | 23,8% and 24% | 63,9% and 64% | > 120 | 
CCCCCCOc1ccc(-c2cc(=O)c3ccccc3[nH]2)cc1 [compound 6, 2-(4-(Hexyloxy)-phenyl)-quinolin-4(1H)-one] |  | 560 ± 70 nM | 500 nM |  |  |  |  |  |  |  | 83% |  |  |  |  | no activity
